In patent publication US6825173B2, “Preparation of fagopyritols and uses therefor” (Cornell Research Foundation, Inc., priority 1997, dated 2004):

What was measured:
human fecal microflora = experiment: In vitro fermentation of fagopyritol-enriched buckwheat extract by human fecal microflora; format: in vitro ADME; conditions: 40° C.; for concentration of inositols and fagopyritols: anaerobic
Method: Fermentation tests were done with fagopyritol-enriched Birkett Mills buckwheat extract that had previously been treated with dry granular baking yeast. Yeast cells were removed by centrifugation (10 minutes at 19K rpm using a Sorvall refrigerated centrifuge) and ultrafiltration (Amicon filtration device, 10, 000 MW cut-off). The fagopyritol water extract was boiled under carbon dioxide to sterilize and remove all other gases.
Anaerobic conditions were maintained during the preparation of fecal inoculum and of all samples by working under streams of carbon dioxide gas. Fermentation bottles were sealed with rubber stoppers and metal caps.
Fagopyritol substrate was prepared first. Then, 1 ml was placed in all bottles except blanks (duplicate samples plus one control and one blank done for 0, 6, 12, and 24 hours). Next, the nutritive medium was prepared. Control bottles received 1 ml of the medium in place of inoculum. The remaining medium was used to dilute fresh feces 1:12, w/v, prepared as described in Barry et al., “In Vitro Fermentation of Neutral Monosaccharides by Ruminal and Human Fecal Microflora,” Acta Vet Scand, 86 (supplement): 93-95 (1989) and Guillon et al., “Characterization of Residual Fibers from Fermentation of Pea and Apple Fibres by Human Fecal Bacteria,” J. Sci. Food Agric., 68:521-529 (1995), which are hereby incorporated by reference. All samples and blanks were inoculated with 1 ml of fecal inoculum by syringe through the rubber stoppers.
A 40° C. water bath was used for the fermentation which was stopped at the specified times by opening bottles to air and immediately freezing.
The samples were prepared for GC analysis after thawing by centrifuging (microfuge, 8000 rpm) once and then again in 10,000 MW cut-off microfuge tubes. The salts present in those samples containing nutritive medium were removed by passing each sample through Amberlite mixed-bed resin, because salts interfere with TMS-derivitization. Two control samples of the original extract were also passed through the resin to insure that fagopyritols were not removed by the treatment.
A small volume of each (750 μL) was dried with 100 μg of internal standard (phenyl α-D-glucopyranoside) in silyation vials under a stream of nitrogen gas; vials were then placed in a desiccator over P205 overnight.
Trimethylsilyl derivitives were prepared by adding 100 μL of 1:1 pyridine:TMS solution and heating at 70° C. for 30 minutes.
Finally, derivitized samples were analyzed on the GC (HP 5890 Series II; DB-1 column; 0.25 mm i.d., 15 m length, 0.25 μm film thickness).

[1] = target: T1, green coffee bean α-D-galactosidase (EC 3.2.1.22) (Coffea arabica, UniProt Q42656); experiment: Enzymatic hydrolysis with α-galactosidase; format: biochemical; conditions: for hydrolysis by α-galactosidase (in words): 1.25 units desalted enzyme in 200 μL water at 22° C. (Examples 22, 23), products by GC
T1 construct: desalted green coffee bean α-D-galactosidase (EC 3.2.1.22); purchased Boehringer Mannheim Corporation, Indianapolis, Ind; host or cells: green coffee bean
Method: Enzymatic Digestion. One ml of green coffee bean α-galactosidase (EC 3.2.1.22) (Boehringer Mannheim Corporation, Indianapolis, Ind.) in 3.2 M ammonium sulfate was dialyzed overnight against 1000 ml of distilled water to remove the ammonium sulfate that interferes with the silylation reaction and causes variable results. […] After 24 h, 0.2 ml of absolute ethanol and 100 μg of internal standard were added. The mixture was heated to 90° C. for 5 min to inactivate the enzyme and centrifuged through a 10,000 Mr cutoff filter. The filtrate was evaporated to dryness in a stream of nitrogen gas, silylated, and analyzed by gas chromatography as above.
(§1) Acid and Enzymic Hydrolysis. […] Enzyme protein was removed by filtration (10,000 MW cut-off filter), samples were dried, and products assayed by GC analysis of trimethylsilyl derivatives. Raffinose and lactose (100 μg) were hydrolyzed only by α- or β-D-galactosidase respectively, confirming that both enzymes were active.
as §1, with “hydrolyzed” for “hydrolyzed only”

[2] = tested on: bovine liver β-D-galactosidase (EC 3.2.1.23); experiment: Enzymatic hydrolysis with β-galactosidase; format: biochemical; conditions: for hydrolysis by β-galactosidase (in words): 0.5 units in 200 μL water at 37° C. for 24 h, products by GC
Method: as §1
as §1, with “hydrolyzed” for “hydrolyzed only”

[3] = Controls (nutritive medium in place of fecal inoculum), 0 hrs
[4] = Controls (nutritive medium in place of fecal inoculum), 6 hrs
[5] = Controls (nutritive medium in place of fecal inoculum), 12 hrs
[6] = Samples with human fecal inoculum, 0 hrs
[7] = Samples with human fecal inoculum, 6 hrs
[8] = Samples with human fecal inoculum, 12 hrs

T1 sequence (Q42656 16-378): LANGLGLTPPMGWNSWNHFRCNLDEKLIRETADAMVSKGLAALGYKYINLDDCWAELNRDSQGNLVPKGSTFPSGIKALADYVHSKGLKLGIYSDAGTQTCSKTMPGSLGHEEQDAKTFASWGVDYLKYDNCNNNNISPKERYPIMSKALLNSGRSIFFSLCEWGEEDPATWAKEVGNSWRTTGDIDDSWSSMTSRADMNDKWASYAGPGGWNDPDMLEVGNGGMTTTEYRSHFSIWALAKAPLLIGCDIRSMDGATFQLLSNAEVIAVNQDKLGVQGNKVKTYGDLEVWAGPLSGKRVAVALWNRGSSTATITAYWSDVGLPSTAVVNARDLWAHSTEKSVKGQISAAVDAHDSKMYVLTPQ

| Molecule | concentration of inositols and fagopyritols (human fecal microflora; [3]) | concentration of inositols and fagopyritols (human fecal microflora; [4]) | concentration of inositols and fagopyritols (human fecal microflora; [5]) | concentration of inositols and fagopyritols (human fecal microflora; [6]) | concentration of inositols and fagopyritols (human fecal microflora; [7]) | concentration of inositols and fagopyritols (human fecal microflora; [8]) | hydrolysis by α-galactosidase (in words) [1] | Enzymic hydrolysis by α-D-galactosidase ([1]; Fagopyritol A and B Series) | hydrolysis by β-galactosidase (in words) [2] | Enzymic hydrolysis by β-D-galactosidase ([2]; Fagopyritol A and B Series) | metabolism by fecal bacteria (in words) (human fecal microflora; fermentation of fagopyritol-enriched extract) | Enzymic hydrolysis by α-D-galactosidase ([1]; Galactinol Series) | Enzymic hydrolysis by β-D-galactosidase ([2]; Galactinol Series) |
| --- | --- | --- | --- | --- | --- | --- | --- | --- | --- | --- | --- | --- | --- |
| O[C@H]1[C@H](O)[C@@H](O)[C@H](O)[C@@H](O)[C@H]1O [myo-inositol] | 45 µg/750 µL | 48 µg/750 µL | 26 µg/750 µL | 20 µg/750 µL | 0 µg/750 µL | 0 µg/750 µL | – | – | – | – | – | – | – |
| OCC1O[C@@H](O[C@H]2C(O)C(O)[C@H](O)C(O)C2O)C(O)C(O)[C@H]1O (stereo partly drawn) [Fagopyritol A1, O-α-D-galactopyranosyl-(1→3)-D-chiro-inositol] | 88 µg/750 µL | 87 µg/750 µL | 94 µg/750 µL | 106 µg/750 µL | 0 µg/750 µL | 0 µg/750 µL | hydrolyzed | yes | not by β-D-galactosidase | no | – | – | – |
| OC1C(O)C(O)C(O)C(O)C1O [D-chiro-inositol] | 99 µg/750 µL | 102 µg/750 µL | 58 µg/750 µL | 47 µg/750 µL | 0 µg/750 µL | 0 µg/750 µL | – | – | – | – | – | – | – |
| OC[C@H]1O[C@H](OC[C@H]2O[C@H](O[C@]3(CO)O[C@H](CO)[C@@H](O)[C@@H]3O)[C@H](O)[C@@H](O)[C@@H]2O)[C@H](O)[C@@H](O)[C@H]1O [Raffinose, O-α-D-galactopyranosyl-(1→6)-α-D-glucopyranosyl-(1→2)-β-D-fructofuranoside, reference compound] | – | – | – | – | – | – | hydrolyzed | – | – | – | – | – | – |
| OCC1O[C@H](OC2C(O)[C@H](O)C(O)C(O)[C@@H]2O)C(O)C(O)[C@H]1O (stereo partly drawn) [Fagopyritol B1, O-α-D-galactopyranosyl-(1→2)-D-chiro-inositol] | 667 µg/750 µL | 636 µg/750 µL | 605 µg/750 µL | 591 µg/750 µL | 0 µg/750 µL | 0 µg/750 µL | hydrolyzed | yes | not by β-D-galactosidase | no | – | – | – |
| O-α-D-galactopyranosyl-(1→6)-O-α-D-galactopyranosyl-(1→6)-O-α-D-galactopyranosyl-(1→2)-D-chiro-inositol [Fagopyritol B3] | – | – | – | – | – | – | completely hydrolyzed | yes | – | – | – | – | – |
| OCC1OC(OCC2OC(OCC3OC(OC4C(O)C(O)C(O)C(O)C4O)C(O)C(O)C3O)C(O)C(O)C2O)C(O)C(O)C1O [TGMI, O-α-D-galactopyranosyl-(1→6)-O-α-D-galactopyranosyl-(1→6)-O-α-D-galactopyranosyl-(1→3)-D-myo-inositol] | – | – | – | – | – | – | completely hydrolyzed | – | – | – | – | – | – |
| O-α-D-galactopyranosyl-(1→6)-O-α-D-galactopyranosyl-(1→6)-O-α-D-galactopyranosyl-(1→3)-D-chiro-inositol [Fagopyritol A3] | 21 µg/750 µL | 20 µg/750 µL | 26 µg/750 µL | 48 µg/750 µL | 0 µg/750 µL | 0 µg/750 µL | hydrolyzed | yes | not by P-D-galactosidase | no | – | – | – |
| OC[C@H]1O[C@H](OC[C@H]2O[C@H](O[C@@H]3[C@@H](O)[C@H](O)[C@@H](O)[C@H](O)[C@@H]3O)[C@H](O)[C@@H](O)[C@H]2O)[C@H](O)[C@@H](O)[C@H]1O [digalactosyl myo-inositol, O-α-D-galactopyranosyl-(1→6)-O-α-D-galactopyranosyl-(1→3)-D-myo-inositol] | – | – | – | – | – | – | completely hydrolyzed | – | not by β-galactosidase | – | – | – | – |
| OC[C@H]1O[C@H](O[C@H]2O[C@H](CO)[C@@H](O)[C@H](O)[C@H]2O)[C@H](O)[C@@H](O)[C@@H]1O [trehalose, O-α-D-glucopyranosyl-(1-1′)-O-α-D-glucoside] | – | – | – | – | – | – | – | – | – | – | metabolized | – | – |
| OC[C@H]1O[C@@H](O[C@H]2[C@H](O)[C@@H](O)C(O)O[C@@H]2CO)[C@H](O)[C@@H](O)[C@H]1O (stereo partly drawn) [lactose, reference compound] | – | – | – | – | – | – | – | – | hydrolyzed | – | – | – | – |
| OC[C@H]1O[C@H](OC2[C@@H](O)[C@H](O)C(O)[C@H](O)[C@@H]2O)[C@H](O)[C@@H](O)[C@H]1O (stereo partly drawn) [Galactinol (gt1)] | – | – | – | – | – | – | – | – | – | – | – | yes | no |
| OCC1O[C@H](OCC2O[C@H](OC3C(O)[C@H](O)C(O)C(O)[C@@H]3O)C(O)C(O)[C@H]2O)C(O)C(O)[C@H]1O (stereo partly drawn) [Fagopyritol B2, O-α-D-galactopyranosyl-(1→6)-O-α-D-galactopyranosyl-(1→2)-D-chiro-inositol] | 83 µg/750 µL | 72 µg/750 µL | 66 µg/750 µL | 65 µg/750 µL | 0 µg/750 µL | 0 µg/750 µL | hydrolyzed | yes | not by P-D-galactosidase | no | – | – | – |
| OCC1O[C@H](OCC2O[C@@H](O[C@H]3C(O)C(O)[C@H](O)C(O)C3O)C(O)C(O)[C@H]2O)C(O)C(O)[C@H]1O (stereo partly drawn) [Fagopyritol A2, O-α-D-galactopyranosyl-(1→6)-O-α-D-galactopyranosyl-(1→3)-D-chiro-inositol] | 56 µg/750 µL | 54 µg/750 µL | 59 µg/750 µL | 54 µg/750 µL | 0 µg/750 µL | 0 µg/750 µL | hydrolyzed | yes | not by P-D-galactosidase | no | – | – | – |
